Tests used:
Format in all cases: cell-based
[1] = tested on: S. saprophyticus ATCC 15305; test: Deferred antagonism assay, producer S. salivarius K12
Experimental: (§1) 1-2 producer strain colonies were transferred from a stock plate into 900 μL of suspension solution using a fresh cotton swab. Following this, suspensions were vortexed, and a sample was inoculated onto solid culture media using a fresh cotton swab. The inoculation was a streak that runs diametrically across the agar plate in a 1.5 cm wide strip. The plate was then incubated. Following incubation all visible colonies were removed by swabbing them from the agar surface. The plates were then treated with chloroform by dispensing 2 ml of chloroform onto 4 cm×4 cm piece of cloth and sealing the inverted agar plate on top for 30 minutes. The plates were then air dried for 30 minutes following chloroforming. 1-2 indicator strain colonies were then transferred from a stock plate into complementary suspension solution. The suspensions were then vortexed, and a sample was inoculated onto the same agar surface. These samples were streaked in a perpendicular direction to the initial producer streak.
(§2) Each indicator streak was prepared with fresh a suspension containing cells from a corresponding stock plate containing the indicator strain of interest. Indicator strains suspension samples were transferred using a fresh cotton swab. Results were measured by qualitatively reviewing the subsequent (if any) sizes of the zones of inhibition (ZOI) of indicator strain colony growth. A positive result is when there is a distinctive reduction or complete inhibition of indicator colony growth on the culture medium.
(§3) CABCa agar plates containing various concentrations of saccharide were prepared according to the methods described in Method 1. Producer strains were transferred from stock agar plates into 900 μL THB using a fresh cotton swab. A plastic spread plater was cut to approximately 1.2 cm width and then dipped into ethanol and left to air dry to ensure sterility. A 100 μL sample of the producer strain suspension was then dispensed onto the agar surface in a straight line running diametrically across the agar surface in (approximately) 20 μL spots. The spots were spaced approximately 1.5 cm apart from each other. The plastic spreader was then used to evenly distribute the spots across the agar surface in a 1.5 cm wide strip. This step was taken to ensure an even producer streak was inoculated onto the agar surface and provided an approximate measure of the initial inoculum concentration. Separate plastic spreaders were used for samples containing different producer strains. The samples were left to soak into the agar surface until there was no visible liquid remaining on the agar surface (approximately 20 minutes). Following producer streak preparations, the deferred antagonism assay protocol was followed as per Method 2. Results were recorded by measuring the size of the zone of inhibition (ZOI) in mm.
(§4) A dose response assay was carried out according to method 3 above, except a 1.2 cm streak was used. For the individual saccharide testing the pH of the producer streak was adjusted after the growth of producer to change the acidic conditions.
(§5) A deferred antagonism assay was conducted using K12 or M18 raw ingredient suspended in Todd Hewitt broth (THB). This was spread as a 1.2 cm streak containing approximately 1-2×10^6 cfu down the middle of a CABCa control or CABCa galactose supplemented test plate. After 18 hrs growth at 37° C. with 5% CO2, bacterial growth was removed, and the pH of the agar in the initial streak was measured and adjusted to a pH of 6.5-7.5 using 0.5M sodium carbonate pH11 before sterilizing the agar surface using chloroform vapor. Bacterial test strains were suspended in i-THB before being swabbed across the plates perpendicular to the initial streak. Plates were incubated for a further 18 hrs incubation at 37° C. with 5% CO2 before measuring (mm) any zones of inhibition for each test strain, […]

[2] = tested on: S. mutans OMZ175; test: as above
Experimental: as §1, §2, §3, §4, §5

[3] = tested on: S. constellatus T29; test: as above
Experimental: as §1, §2, §3, §4, §5

[4] = tested on: microorganisms associated with skin, dental, ENTR; test: Dose response assay, raffinose vs equimolar trimix and individual saccharides, K12; settings: equimolar concentration
Experimental: as §3, with “mm. […]” for “mm.”

[5] = tested on: P. aeruginosa I2; test: Dose response deferred antagonism assay, producer M18; settings: 1.5% (w/v) raffinose
[6] = tested on: S. pyogenes M76; test: Dose response deferred antagonism assay, producer K12
Experimental: as §1, §2, §3
(§6) The results presented in FIG. 1 and FIG. 2 illustrate the change in ear, nose, and throat (ENT) microorganism indicator strain zone of inhibition sizes. When K12 was cultured in the presence of various concentrations of galactose the ZOI sizes for several of the ENTR indicator strains increased markedly from the control condition (FIG. 1). M. catarrhalis TW1 and TW2 display similar changes in the ZOI sizes across the various concentrations of galactose. The change in TW1 ZOI size peaks at 1.5% galactose(w/v) (12 mm) then decreases at 2.0% galactose (w/v), whereas the change of TW2 ZOI size peaks at 2.0% galactose (w/v) (11 mm). The change in L. lactis T-21 ZOI sizes trend upwards relative to the concentration of galactose present in the culture medium.

[7] = tested on: L. lactis T-21; test: as above
Experimental: as §1, §2, §3, §6

[8] = tested on: M. catarrhalis TW2; test: as above; settings: peak
Experimental: as §1, §2, §3, §6

[9] = tested on: S. pyogenes strain as well as other microorganisms; test: Inhibitory activity of M18 grown in M17 broth with saccharides; settings: saccharide 0.83% or 2.5% w/v, vs control
[10] = 2.5, 5 and 10% w/v raffinose added
[11] = K12, Raffinose 1.7% wt, pH adjusted
[12] = K12, Raffinose 2.5% wt, pH adjusted
[13] = K12, Raffinose 3.3% wt, pH adjusted
[14] = K12, Raffinose 5% wt, pH adjusted
[15] = K12, Raffinose 10% wt, pH adjusted
[16] = K12, saccharide range 2.5%-10% w/v

OC[C@H]1O[C@H](OC[C@H]2O[C@H](O[C@]3(CO)O[C@H](CO)[C@@H](O)[C@@H]3O)[C@H](O)[C@@H](O)[C@@H]2O)[C@H](O)[C@@H](O)[C@H]1O [Raffinose, D-(+) Raffinose pentahydrate] was tested, and the “sensitivity of S. saprophyticus ATCC 15305 to K12” value [1, 10] was “sensitive”, the “Zone of inhibition S. saprophyticus ATCC 15305” value ([1]; K12, Raffinose 1.7% wt) was 7 mm and the “Zone of inhibition S. saprophyticus ATCC 15305” value [1, 11] was 0 mm. For the same compound, the “Zone of inhibition S. saprophyticus ATCC 15305” value ([1]; K12, Raffinose 2.5% wt) was 12 mm, the “Zone of inhibition S. saprophyticus ATCC 15305” value [1, 12] was 8 mm and the “Zone of inhibition S. saprophyticus ATCC 15305” value ([1]; K12, Raffinose 3.3% wt) was 12 mm. For the same compound, the “Zone of inhibition S. saprophyticus ATCC 15305” value [1, 13] was 11 mm, the “Zone of inhibition S. saprophyticus ATCC 15305” value ([1]; K12, Raffinose 5% wt) was 13 mm and the “Zone of inhibition S. saprophyticus ATCC 15305” value [1, 14] was 12 mm. The “Zone of inhibition S. saprophyticus ATCC 15305” value ([1]; K12, Raffinose 10% wt) was 12 mm, the “Zone of inhibition S. saprophyticus ATCC 15305” value [1, 15] was 11 mm and the “Inhibitory activity of S. salivarius K12 in presence of saccharides, S. saprophyticus ATCC 15305” value ([1]; K12, saccharide 3.3% w/v) was “✓”. The “Inhibitory activity of S. salivarius K12 in presence of saccharides, S. saprophyticus ATCC 15305” value [1, 16] was “✓”, the “sensitivity of S. mutans OMZ175 to K12” value [2, 10] was “sensitive” and the “Zone of inhibition S. mutans OMZ175” value ([2]; K12, Raffinose 1.7% wt) was 11 mm. The “Zone of inhibition S. mutans OMZ175” value [2, 11] was 7 mm, the “Zone of inhibition S. mutans OMZ175” value ([2]; K12, Raffinose 2.5% wt) was 16 mm and the “Zone of inhibition S. mutans OMZ175” value [2, 12] was 13 mm. The “Zone of inhibition S. mutans OMZ175” value ([2]; K12, Raffinose 3.3% wt) was 16 mm, the “Zone of inhibition S. mutans OMZ175” value [2, 13] was 14 mm and the “Zone of inhibition S. mutans OMZ175” value ([2]; K12, Raffinose 5% wt) was 16 mm. For the same compound, the “Zone of inhibition S. mutans OMZ175” value [2, 14] was 15 mm, the “Zone of inhibition S. mutans OMZ175” value ([2]; K12, Raffinose 10% wt) was 15 mm and the “Zone of inhibition S. mutans OMZ175” value [2, 15] was 10 mm. For the same compound, the “Inhibitory activity of S. salivarius K12 in presence of saccharides, S. mutans OMZ175” value ([2]; K12, saccharide 3.3% w/v) was “✓”, the “Inhibitory activity of S. salivarius K12 in presence of saccharides, S. mutans OMZ175” value [2, 16] was “✓” and the “inhibition by K12 of S. constellatus T-29” value ([3]; 0.5 to 10% w/v raffinose) was “increase in inhibition”. The “Zone of inhibition S. constellatus T29” value ([3]; K12, Raffinose 1.7% wt) was 8 mm, the “Zone of inhibition S. constellatus T29” value [3, 11] was 4 mm and the “Zone of inhibition S. constellatus T29” value ([3]; K12, Raffinose 2.5% wt) was 22 mm. For the same compound, the “Zone of inhibition S. constellatus T29” value [3, 12] was 18 mm, the “Zone of inhibition S. constellatus T29” value [3, 13] was 16 mm and the “Zone of inhibition S. constellatus T29” value [3, 14] was 12 mm. For the same compound, the “Zone of inhibition S. constellatus T29” value ([3]; K12, Raffinose 10% wt) was 2 mm, the “Zone of inhibition S. constellatus T29” value [3, 15] was 11 mm and the “inhibitory activity of K12 compared to equivalent composition of the three monomeric saccharides” value [4] was “better inhibitory activity”. For the same compound, the “P. aeruginosa I2 ZOI” value [5] was 10 mm, the “change in ZOI size for S. pyogenes M76” value ([6]; 1.5% raffinose (w/v), peak) was 13 mm and the “change in L. lactis ZOI size” value ([7]; 0.1% raffinose (w/v)) was 15 mm. The “change in L. lactis ZOI size” value ([7]; 1.0% raffinose (w/v)) was 16 mm, the “change in ZOI size M. catarrhalis TW2” value ([8]; 2.0% (w/v) raffinose) was 13 mm and the “inhibitory activity of M18 grown in presence of saccharide” value [9] was “greater inhibitory activity”.

O=C[C@H](O)[C@@H](O)[C@@H](O)[C@H](O)CO [Galactose, D-galactose] gave a zone of inhibition at 0.5 % strength ([1]; Staphylococcus saprophyticus, ATCC15305, K12, Galactose 0.5% w/w, read-out: Size of zone inhibition normalised to control, S. saprophyticus ATCC 15305) of 0 mm, a zone of inhibition at 1.25 % strength ([1]; Staphylococcus saprophyticus, ATCC15305, K12, Galactose 1.25% w/w, read-out: Size of zone inhibition normalised to control, S. saprophyticus ATCC 15305) of 0 mm and a zone of inhibition at 1.7 % strength ([1]; Staphylococcus saprophyticus, ATCC15305, K12, Galactose 1.7% w/w, read-out: Size of zone inhibition normalised to control, S. saprophyticus ATCC 15305) of 0 mm. The zone of inhibition at 2.5 % strength ([1]; Staphylococcus saprophyticus, ATCC15305, K12, Galactose 2.5% w/w, read-out: Size of zone inhibition normalised to control, S. saprophyticus ATCC 15305) was 0 mm, the zone of inhibition at 3.3 % strength ([1]; Staphylococcus saprophyticus, ATCC15305, K12, Galactose 3.3% w/w, read-out: Size of zone inhibition normalised to control, S. saprophyticus ATCC 15305) was 0 mm and the zone of inhibition at 5 % strength ([1]; Staphylococcus saprophyticus, ATCC15305, K12, Galactose 5% w/w, read-out: Size of zone inhibition normalised to control, S. saprophyticus ATCC 15305) was 0 mm. The zone of inhibition at 0.5 % strength ([2]; Streptococcus mutans, OMZ175, K12, Galactose 0.5% w/w, read-out: Size of zone inhibition normalised to control, S. mutans OMZ175) was 10 mm, the zone of inhibition at 1.25 % strength ([2]; Streptococcus mutans, OMZ175, K12, Galactose 1.25% w/w, read-out: Size of zone inhibition normalised to control, S. mutans OMZ175) was 10 mm and the zone of inhibition at 1.7 % strength ([2]; Streptococcus mutans, OMZ175, K12, Galactose 1.7% w/w, read-out: Size of zone inhibition normalised to control, S. mutans OMZ175) was 0 mm. The zone of inhibition at 2.5 % strength ([2]; Streptococcus mutans, OMZ175, K12, Galactose 2.5% w/w, read-out: Size of zone inhibition normalised to control, S. mutans OMZ175) was 0 mm, the zone of inhibition at 3.3 % strength ([2]; Streptococcus mutans, OMZ175, K12, Galactose 3.3% w/w, read-out: Size of zone inhibition normalised to control, S. mutans OMZ175) was 0 mm and the zone of inhibition at 5 % strength ([2]; Streptococcus mutans, OMZ175, K12, Galactose 5% w/w, read-out: Size of zone inhibition normalised to control, S. mutans OMZ175) was 0 mm. For the same compound, the zone of inhibition at 0.5 % strength ([3]; Streptococcus constellatus, T29, K12, Galactose 0.5% w/w, read-out: Size of zone inhibition normalised to control, S. constellatus T29) was 14 mm, the zone of inhibition at 1.25 % strength ([3]; Streptococcus constellatus, T29, K12, Galactose 1.25% w/w, read-out: Size of zone inhibition normalised to control, S. constellatus T29) was 15 mm and the zone of inhibition at 1.7 % strength ([3]; Streptococcus constellatus, T29, K12, Galactose 1.7% w/w, read-out: Size of zone inhibition normalised to control, S. constellatus T29) was 12 mm. For the same compound, the zone of inhibition at 2.5 % strength ([3]; Streptococcus constellatus, T29, K12, Galactose 2.5% w/w, read-out: Size of zone inhibition normalised to control, S. constellatus T29) was 13 mm, the zone of inhibition at 3.3 % strength ([3]; Streptococcus constellatus, T29, K12, Galactose 3.3% w/w, read-out: Size of zone inhibition normalised to control, S. constellatus T29) was 10 mm and the zone of inhibition at 5 % strength ([3]; Streptococcus constellatus, T29, K12, Galactose 5% w/w, read-out: Size of zone inhibition normalised to control, S. constellatus T29) was 0 mm. The “change in M76 ZOI size” value ([6]; between 1.5% and 2.0% galactose) was 11 mm, the “change in L. lactis T-21 ZOI sizes” value ([7]; relative to the concentration of galactose) was “trend upwards” and the “change of TW2 ZOI size” value ([8]; 2.0% galactose (w/v)) was 11 mm. For the same compound, the “inhibitory activity of M18 grown in presence of saccharide” value [9] was “greater inhibitory activity”.
